From ChEMBL document CHEMBL4028808, “Design and synthesis of selective CDK8/19 dual inhibitors: Discovery of 4,5-dihydrothieno[3',4':3,4]benzo[1,2-d]isothiazole derivatives” (Bioorg Med Chem, 2017)
Activity calls are given as the source filed them. The rule behind the calls is not given here.

Columns and labels:
[1] = biological target: Cyclin-dependent kinase 19 (Homo sapiens, UniProt Q9BWU1); test: Binding affinity to partial length wild-type human CDK19 (M1 to N360 residues) expressed in bacterial expression system by KINOMEscan assay
[2] = biological target: Mitogen-activated protein kinase kinase kinase 19 (Homo sapiens, UniProt Q56UN5); test: Binding affinity to partial length wild-type human YSK4 (T1019 to H1328 residues) expressed in bacterial expression system by kinome scan assay
[3] = biological target: Homeodomain-interacting protein kinase 1 (Homo sapiens, UniProt Q86Z02); test: Binding affinity to partial length human HIPK1 (M146 to I555 residues) expressed in mammalian expression system by kinome scan assay
[4] = Mean residence time in ICR mouse plasma at 0.1 mg/kg, iv administered as cassette dose by LC-MS/MS analysis; assay type: ADME, organism-based
[5] = Mean residence time in ICR mouse plasma at 1 mg/kg, po administered as cassette dose by LC-MS/MS analysis; assay type: ADME, organism-based
Mus musculus [6] = test: AUC (0 to 24 hrs) in ICR mouse plasma at 0.1 mg/kg, iv administered as cassette dose by LC-MS/MS analysis; assay type: ADME, organism-based; parameters: dose 0.1 mg/kg, time < 24 hr, route intravenous; conditions: in vivo
[7] = AUC (0 to 24 hrs) in ICR mouse plasma at 1 mg/kg, po administered as cassette dose by LC-MS/MS analysis; assay type: ADME, organism-based; parameters: dose 1 mg/kg, time < 24 hr, route oral
[8] = Half life in ICR mouse plasma at 0.1 mg/kg, iv or 1 mg/kg, po administered as cassette dose by LC-MS/MS analysis; assay type: ADME, organism-based
Mus musculus [9] = test: Toxicity in C.B17/Icr scid/scid Jcl mouse assessed as body weight loss at 1.25 mg/kg, po bid administered for 14 days measured post last dose; assay type: organism-based; conditions: in vivo, 336 h
Mus musculus [10] = test: Toxicity in C.B17/Icr scid/scid Jcl mouse assessed as body weight loss at 2.5 mg/kg, po qd administered for 14 days measured post last dose; assay type: organism-based; conditions: in vivo, 336 h
Mus musculus [11] = test: In vivo inhibition of CDK8-mediated STAT1 phosphorylation in human RPMI8226 cells xenografted in C.B17/Icr scid/scid Jcl mouse at 1.25 mg/kg, po bid administered for 14 days measured 2 to 8 hrs post last dose; assay type: functional, organism-based
Mus musculus [12] = test: In vivo inhibition of CDK8-mediated STAT1 phosphorylation in human RPMI8226 cells xenografted in C.B17/Icr scid/scid Jcl mouse at 2.5 mg/kg, po bid administered for 14 days measured 2 to 8 hrs post last dose; assay type: functional, organism-based
[13] = biological target: CDK2/Cyclin A2 (Homo sapiens) (UniProt P24941+P20248); test: Inhibition of CDK2/cyclin A (unknown origin) at 1 uM using histone H1 as substrate preincubated for 5 mins followed by substrate addition measured after 20 mins in presence of [gamma33P]ATP by scintillation counter method relative to control; assay type: protein-complex assay
[14] = biological target: Mitogen-activated protein kinase kinase kinase 5 (Homo sapiens) (UniProt Q99683); test: Inhibition of ASK1 (unknown origin) at 1 uM using MBP as substrate preincubated for 5 mins followed by substrate addition measured after 60 mins in presence of [gamma33P]ATP by scintillation counter method relative to control
Homo sapiens = organism: Homo sapiens; test: Inhibition of PKA (unknown origin) at 1 uM using PKA peptide as substrate preincubated for 5 mins followed by substrate addition measured after 10 mins in presence of [gamma33P]ATP by scintillation counter method relative to control
[15] = biological target: Rho-associated protein kinase 1 (Homo sapiens) (UniProt Q13464); test: Inhibition of ROCK1 (unknown origin) at 1 uM using long S6 peptide as substrate pretreated for 5 mins followed by substrate addition measured after 10 mins in presence of [gamma33P]ATP by scintillation counting method relative to control
[16] = biological target: Protein kinase C theta type (Homo sapiens) (UniProt Q04759); test: Inhibition of PKCtheta (unknown origin) at 1 uM using MBP as substrate preincubated for 5 mins followed by substrate addition measured after 60 mins in presence of [gamma33P]ATP by scintillation counter method relative to control
[17] = biological target: RAC-alpha serine/threonine-protein kinase (Homo sapiens) (UniProt P31749); test: Inhibition of Akt1 (unknown origin) at <1 uM using AKT1 substrate pretreated for 5 mins followed by substrate addition after 20 mins in presence of [gamma33P]ATP by scintillation counter method
[18] = biological target: Aurora kinase B (Homo sapiens) (UniProt Q96GD4); test: Inhibition of Aurora B (unknown origin) at <1 uM using aurora peptide as substrate preincubated for 5 mins followed by substrate addition measured after 60 mins in presence of [gamma33P]ATP by scintillation counter method
[19] = biological target: Hepatocyte growth factor receptor (Homo sapiens) (UniProt P08581); test: Inhibition of cMET (unknown origin) at <1 uM
[20] = biological target: Insulin receptor (Homo sapiens) (UniProt P06213); test: Inhibition of IRK (unknown origin) at <1 uM using biotinylated poly[Glu:Tyr] (4:1) as substrate pretreated for 5 mins followed by substrate addition measured after 60 mins by Alphascreen assay
[21] = biological target: Mitogen-activated protein kinase kinase kinase 19 (Homo sapiens) (UniProt Q56UN5); test: Binding affinity to partial length wild-type human YSK4 (T1019 to H1328 residues) expressed in bacterial expression system assessed as unbound drug level at 300 nM by KINOMEscan assay
[22] = biological target: Ephrin type-A receptor 3 (Homo sapiens) (UniProt P29320); test: Binding affinity to partial length wild-type human EPHA3 (D604 to K889 residues) expressed in bacterial expression system assessed as unbound drug level at 300 nM by KINOMEscan assay
[23] = biological target: Cyclin-C/Cyclin-dependent kinase 19 (Homo sapiens, UniProt Q9BWU1); test: Inhibition of kinase tracer-236 binding to GST-tagged CDK19/CyclinC (unknown origin) after 60 mins by TR-FRET assay; assay type: protein-complex assay
[24] = Toxicity in C.B17/Icr scid/scid Jcl mouse mouse; conditions: in vivo
[25] = biological target: Proto-oncogene tyrosine-protein kinase Src (Homo sapiens) (UniProt P12931); test: Inhibition of SRC (unknown origin) at <1 uM using biotinylated poly[Glu:Tyr] (4:1) as substrate pretreated for 5 mins followed by substrate addition measured after 10 mins by Alphascreen assay
[26] = biological target: Homeodomain-interacting protein kinase 2 (Homo sapiens) (UniProt Q9H2X6); test: Binding affinity to partial length wild-type human HIPK2 (M153 to S564 residues) expressed in mammalian expression system assessed as unbound drug level at 300 nM by KINOMEscan assay
MV4-11 = test: Growth inhibition of human MV411 cells after 196 hrs by CellTiter-Glo luminescence assay; assay type: functional; conditions: MV4-11, 196 h
Calu-1 = test: Growth inhibition of human Calu1 cells after 196 hrs by CellTiter-Glo luminescence assay; assay type: functional; conditions: Calu-1, 196 h
[27] = biological target: Cyclin-dependent kinase 8 (Homo sapiens, UniProt P49336); test: Inhibition of CDK8 in human SW480 cells assessed as decrease in STAT1 phosphorylation at Ser727 after 2 hrs by Western blot method

Sequence of Insulin receptor (Homo sapiens) (P06213 28-758 limits assumed): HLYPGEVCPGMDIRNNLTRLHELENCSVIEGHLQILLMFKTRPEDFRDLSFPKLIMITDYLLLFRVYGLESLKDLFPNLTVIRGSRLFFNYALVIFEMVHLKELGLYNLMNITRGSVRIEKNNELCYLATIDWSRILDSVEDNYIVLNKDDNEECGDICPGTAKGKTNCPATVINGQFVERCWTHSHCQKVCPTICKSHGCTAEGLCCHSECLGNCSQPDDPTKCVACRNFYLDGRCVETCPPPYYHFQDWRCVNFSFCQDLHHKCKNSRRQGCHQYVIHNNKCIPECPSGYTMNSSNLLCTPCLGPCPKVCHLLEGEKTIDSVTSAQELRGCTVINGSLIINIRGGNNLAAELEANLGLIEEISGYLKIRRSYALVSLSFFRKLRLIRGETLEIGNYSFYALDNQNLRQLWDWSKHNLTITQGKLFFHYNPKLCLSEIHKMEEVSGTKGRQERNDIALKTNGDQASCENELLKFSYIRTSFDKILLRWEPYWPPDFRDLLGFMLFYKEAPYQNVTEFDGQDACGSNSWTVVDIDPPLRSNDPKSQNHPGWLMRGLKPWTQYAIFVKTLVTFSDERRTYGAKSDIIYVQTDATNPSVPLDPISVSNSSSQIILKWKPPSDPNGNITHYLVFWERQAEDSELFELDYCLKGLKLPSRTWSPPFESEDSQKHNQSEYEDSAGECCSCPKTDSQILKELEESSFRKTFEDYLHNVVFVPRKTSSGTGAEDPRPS
Sequence of Insulin receptor (Homo sapiens) (P06213 763-1382 limits assumed): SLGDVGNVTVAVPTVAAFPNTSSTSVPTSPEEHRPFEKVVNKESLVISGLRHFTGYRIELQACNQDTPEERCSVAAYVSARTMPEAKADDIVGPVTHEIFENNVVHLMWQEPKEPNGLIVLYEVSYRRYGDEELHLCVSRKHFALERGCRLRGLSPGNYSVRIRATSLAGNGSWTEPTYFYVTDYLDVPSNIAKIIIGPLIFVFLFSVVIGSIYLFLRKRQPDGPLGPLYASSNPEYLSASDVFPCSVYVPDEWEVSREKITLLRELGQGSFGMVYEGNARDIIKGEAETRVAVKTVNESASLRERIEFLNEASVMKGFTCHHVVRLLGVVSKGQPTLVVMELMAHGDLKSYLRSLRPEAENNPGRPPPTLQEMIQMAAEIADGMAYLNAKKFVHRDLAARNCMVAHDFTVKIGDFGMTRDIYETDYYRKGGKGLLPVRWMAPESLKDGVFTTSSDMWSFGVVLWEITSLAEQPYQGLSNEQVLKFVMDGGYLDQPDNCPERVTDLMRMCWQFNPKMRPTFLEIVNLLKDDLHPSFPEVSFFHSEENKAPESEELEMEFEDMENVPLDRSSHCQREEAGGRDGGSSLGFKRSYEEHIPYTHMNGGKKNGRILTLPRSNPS
Sequence of Hepatocyte growth factor receptor (Homo sapiens) (P08581 whole entry): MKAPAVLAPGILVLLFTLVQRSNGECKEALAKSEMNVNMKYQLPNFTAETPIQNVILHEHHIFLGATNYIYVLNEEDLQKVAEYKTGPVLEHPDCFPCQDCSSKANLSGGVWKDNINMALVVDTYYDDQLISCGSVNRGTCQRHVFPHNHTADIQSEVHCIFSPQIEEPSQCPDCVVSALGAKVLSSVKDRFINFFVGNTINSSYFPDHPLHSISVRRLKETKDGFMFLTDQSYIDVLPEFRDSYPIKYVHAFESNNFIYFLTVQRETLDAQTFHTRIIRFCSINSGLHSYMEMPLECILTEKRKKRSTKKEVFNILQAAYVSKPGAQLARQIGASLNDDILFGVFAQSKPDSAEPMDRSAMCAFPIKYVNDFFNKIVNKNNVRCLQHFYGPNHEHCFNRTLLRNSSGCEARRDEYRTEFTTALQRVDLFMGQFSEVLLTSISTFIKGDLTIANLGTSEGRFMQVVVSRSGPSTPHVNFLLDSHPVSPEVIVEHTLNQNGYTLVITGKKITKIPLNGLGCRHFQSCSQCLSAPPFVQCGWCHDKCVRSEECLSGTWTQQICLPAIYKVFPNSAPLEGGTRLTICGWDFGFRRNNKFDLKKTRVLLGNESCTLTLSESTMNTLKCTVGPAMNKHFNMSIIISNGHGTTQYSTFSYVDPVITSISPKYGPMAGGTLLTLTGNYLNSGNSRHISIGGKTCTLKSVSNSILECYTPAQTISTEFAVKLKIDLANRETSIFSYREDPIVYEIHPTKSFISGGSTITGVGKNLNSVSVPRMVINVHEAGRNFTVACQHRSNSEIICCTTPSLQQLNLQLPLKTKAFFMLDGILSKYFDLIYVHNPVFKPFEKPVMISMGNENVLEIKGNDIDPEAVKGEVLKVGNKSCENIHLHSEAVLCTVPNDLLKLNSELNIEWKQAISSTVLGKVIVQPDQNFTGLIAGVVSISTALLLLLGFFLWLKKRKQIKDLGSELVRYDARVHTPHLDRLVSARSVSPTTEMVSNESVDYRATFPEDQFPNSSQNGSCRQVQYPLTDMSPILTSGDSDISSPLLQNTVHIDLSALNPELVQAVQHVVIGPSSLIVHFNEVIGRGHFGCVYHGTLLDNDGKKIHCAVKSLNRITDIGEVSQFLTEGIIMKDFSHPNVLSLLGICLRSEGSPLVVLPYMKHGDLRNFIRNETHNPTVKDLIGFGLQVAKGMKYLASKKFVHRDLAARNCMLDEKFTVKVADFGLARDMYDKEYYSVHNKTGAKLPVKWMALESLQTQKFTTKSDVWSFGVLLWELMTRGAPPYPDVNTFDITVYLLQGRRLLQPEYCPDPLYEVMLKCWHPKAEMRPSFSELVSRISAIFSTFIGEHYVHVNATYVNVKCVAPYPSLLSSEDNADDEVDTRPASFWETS
Sequence of Ephrin type-A receptor 3 (Homo sapiens) (P29320 whole entry, the tested form may be a part): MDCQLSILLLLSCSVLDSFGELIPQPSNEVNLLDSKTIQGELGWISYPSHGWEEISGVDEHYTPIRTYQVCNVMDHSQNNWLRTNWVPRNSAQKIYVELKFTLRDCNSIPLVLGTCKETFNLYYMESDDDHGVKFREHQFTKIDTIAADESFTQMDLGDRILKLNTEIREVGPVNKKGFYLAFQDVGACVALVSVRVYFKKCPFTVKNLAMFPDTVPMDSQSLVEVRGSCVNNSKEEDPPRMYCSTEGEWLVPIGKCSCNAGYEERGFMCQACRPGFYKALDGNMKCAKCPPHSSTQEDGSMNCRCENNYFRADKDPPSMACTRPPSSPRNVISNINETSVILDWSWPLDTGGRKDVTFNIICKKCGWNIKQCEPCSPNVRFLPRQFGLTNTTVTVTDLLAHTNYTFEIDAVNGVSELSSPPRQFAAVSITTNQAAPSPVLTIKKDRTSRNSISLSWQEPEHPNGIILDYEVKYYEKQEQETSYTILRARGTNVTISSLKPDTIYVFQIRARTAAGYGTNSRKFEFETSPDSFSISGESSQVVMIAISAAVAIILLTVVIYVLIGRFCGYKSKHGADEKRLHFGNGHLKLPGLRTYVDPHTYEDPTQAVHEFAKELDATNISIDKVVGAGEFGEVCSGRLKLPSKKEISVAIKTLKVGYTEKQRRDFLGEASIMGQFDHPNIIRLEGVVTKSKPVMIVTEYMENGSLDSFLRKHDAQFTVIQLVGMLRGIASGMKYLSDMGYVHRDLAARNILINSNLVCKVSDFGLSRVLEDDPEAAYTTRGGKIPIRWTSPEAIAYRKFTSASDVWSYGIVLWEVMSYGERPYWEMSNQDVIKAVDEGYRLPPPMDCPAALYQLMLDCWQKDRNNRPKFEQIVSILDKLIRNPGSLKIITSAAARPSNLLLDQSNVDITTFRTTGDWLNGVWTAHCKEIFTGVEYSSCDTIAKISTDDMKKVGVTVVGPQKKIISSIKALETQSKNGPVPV
Sequence of Mitogen-activated protein kinase kinase kinase 5 (Homo sapiens) (Q99683 whole entry): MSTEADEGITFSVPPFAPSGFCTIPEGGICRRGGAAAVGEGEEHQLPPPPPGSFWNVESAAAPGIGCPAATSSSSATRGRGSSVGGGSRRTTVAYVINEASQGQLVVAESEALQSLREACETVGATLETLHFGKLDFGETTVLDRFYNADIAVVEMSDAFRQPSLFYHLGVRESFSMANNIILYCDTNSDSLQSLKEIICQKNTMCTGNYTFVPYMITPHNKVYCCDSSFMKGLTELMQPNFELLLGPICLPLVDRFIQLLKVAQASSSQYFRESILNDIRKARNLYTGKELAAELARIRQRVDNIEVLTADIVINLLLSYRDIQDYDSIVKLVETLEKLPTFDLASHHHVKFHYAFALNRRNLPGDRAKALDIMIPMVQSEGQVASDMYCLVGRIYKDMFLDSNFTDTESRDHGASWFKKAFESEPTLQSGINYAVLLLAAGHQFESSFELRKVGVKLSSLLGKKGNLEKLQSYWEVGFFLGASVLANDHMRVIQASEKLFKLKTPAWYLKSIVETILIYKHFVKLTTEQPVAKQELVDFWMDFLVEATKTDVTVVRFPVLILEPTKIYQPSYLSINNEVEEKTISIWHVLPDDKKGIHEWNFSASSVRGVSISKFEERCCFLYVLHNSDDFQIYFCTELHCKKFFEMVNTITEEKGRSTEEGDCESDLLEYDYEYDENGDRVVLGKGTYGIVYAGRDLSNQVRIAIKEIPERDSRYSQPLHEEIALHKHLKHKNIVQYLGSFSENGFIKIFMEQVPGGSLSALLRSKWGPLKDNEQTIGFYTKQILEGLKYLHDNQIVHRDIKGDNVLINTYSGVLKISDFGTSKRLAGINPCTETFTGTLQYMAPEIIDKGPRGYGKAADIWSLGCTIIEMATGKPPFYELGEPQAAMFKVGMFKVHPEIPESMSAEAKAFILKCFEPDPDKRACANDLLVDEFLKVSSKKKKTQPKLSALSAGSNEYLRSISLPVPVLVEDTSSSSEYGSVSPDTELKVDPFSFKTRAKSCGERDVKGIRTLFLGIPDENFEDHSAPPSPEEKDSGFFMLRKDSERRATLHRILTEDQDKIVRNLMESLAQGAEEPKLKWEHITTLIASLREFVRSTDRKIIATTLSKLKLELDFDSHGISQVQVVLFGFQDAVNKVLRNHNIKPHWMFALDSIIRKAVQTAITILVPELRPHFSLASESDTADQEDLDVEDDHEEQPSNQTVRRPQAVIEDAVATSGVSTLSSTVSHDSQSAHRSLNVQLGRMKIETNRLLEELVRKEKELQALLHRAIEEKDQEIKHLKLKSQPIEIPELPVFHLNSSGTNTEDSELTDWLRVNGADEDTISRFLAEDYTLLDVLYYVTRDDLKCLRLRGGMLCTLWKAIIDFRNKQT

COCCNC(=O)c1ccc(Oc2sc(C(N)=O)c3c2-c2sncc2CC3)cn1
Kd [1]: 25 nM
Kd [2]: 97 nM
Kd [3]: 160 nM
MRT [4]: 1.93 h
MRT [5]: 2.06 h
AUC (Mus musculus [6]): 90.4 ng·h/mL
AUC(0-t) at 24 h [7]: 891 ng·h/mL
half-life [8]: 2.1 h
Activity (Mus musculus [9]): 0.9%
Activity (Mus musculus [10]): 10.2%
inhibition (Mus musculus [11]): Active
inhibition (Mus musculus [12]): Active
inhibition [13]: 62%
inhibition [14]: 0%
inhibition (Homo sapiens): 1%
inhibition [15]: 7%
inhibition [16]: 2%
inhibition [17]: inactive
inhibition [18]: inactive
inhibition [19]: inactive
inhibition [20]: inactive
Fu [21]: 0.41%
Fu [22]: 0.43%
IC50 [23]: 0.99 nM
MTD [24]: 2.5 mg/kg
inhibition [25]: inactive
Fu [26]: 0.48%
GI50 (MV4-11): 1.6 nM
GI50 (Calu-1): 0.43 nM
EC50 [27]: 1.3 nM
